# Structures can show the parent of a compound that is named as a salt. Where two headings read alike, the source gives them in different places.
# Columns and labels:
# [1] = Ambient-temperature stability of PAPS lithium salt in aqueous solution or in the form of powder (HPLC determination of PAPS)
# Method: ODS-[…] column (product of YMC) • Eluent: 50 mM Aqueous potassium dihydrogenphosphate solution • Flow rate: 0.6 mL/minute • Detection: Absorbance (A) at 270 nm • Temperature: 20° C. The present invention will next be specifically described in detail with reference to Referential Example and Example. However, it will be understood that the present invention is not limited to the Example. Quantitative determination of PAPS was performed under the aforementioned HPLC conditions. Ambient-temperature stability of a PAPS lithium salt (product of Calbiochem) was evaluated in an aqueous solution or in the form of powder as follows. […] As used herein, “percent undecomposed” or “percentage of undecomposed PAPS” is the ratio of the remaining amount of PAPS to the initial amount thereof.
# [2] = powder 10 mg, desiccator (relative humidity: 10%), ambient temperature (23±2° C.), seven days
Compound,Undecomposed PAPS (%) [2] [%],Undecomposed PAPS (%),further results
"Nc1ncnc2c1ncn2[C@@H]1O[C@H](COP(=O)(O)OS(=O)(=O)O)[C@@H](OP(=O)(O)O)[C@H]1O [Ammonium salt, 3′-phosphoadenosine 5′-phosphosulfate]",4.1,–,–
"Nc1ncnc2c1ncn2[C@@H]1O[C@H](COP(=O)(O)OS(=O)(=O)O)[C@@H](OP(=O)(O)O)[C@H]1O [Diethylamine salt, 3′-phosphoadenosine 5′-phosphosulfate]",96,–,–
"Nc1ncnc2c1ncn2[C@@H]1O[C@H](COP(=O)(O)OS(=O)(=O)O)[C@@H](OP(=O)(O)O)[C@H]1O [Ethanolamine salt, 3′-phosphoadenosine 5′-phosphosulfate]",13,–,–
"Nc1ncnc2c1ncn2[C@@H]1O[C@H](COP(=O)(O)OS(=O)(=O)O)[C@@H](OP(=O)(O)O)[C@H]1O [Ethylamine salt, 3′-phosphoadenosine 5′-phosphosulfate]",–,48,–
"Nc1ncnc2c1ncn2[C@@H]1O[C@H](COP(=O)(O)OS(=O)(=O)O)[C@@H](OP(=O)(O)O)[C@H]1O [Imidazole salt, 3′-phosphoadenosine 5′-phosphosulfate]",2.9,–,–
"Nc1ncnc2c1ncn2[C@@H]1O[C@H](COP(=O)(O)OS(=O)(=O)O)[C@@H](OP(=O)(O)O)[C@H]1O [L-Arginine salt, 3′-phosphoadenosine 5′-phosphosulfate]",–,57,–
"Nc1ncnc2c1ncn2[C@@H]1O[C@H](COP(=O)(O)OS(=O)(=O)O)[C@@H](OP(=O)(O)O)[C@H]1O [L-Histidine salt, 3′-phosphoadenosine 5′-phosphosulfate]",98,–,–
"Nc1ncnc2c1ncn2[C@@H]1O[C@H](COP(=O)(O)OS(=O)(=O)O)[C@@H](OP(=O)(O)O)[C@H]1O [L-Lysine salt, 3′-phosphoadenosine 5′-phosphosulfate]",–,27,–
"Nc1ncnc2c1ncn2[C@@H]1O[C@H](COP(=O)(O)OS(=O)(=O)O)[C@@H](OP(=O)(O)O)[C@H]1O [Lithium salt, 3′-phosphoadenosine 5′-phosphosulfate]",65,–,"Undecomposed of PAPS (%) ([1]; aqueous solution 10 mg/mL, standing still at 4° C. for seven days): >99%; Undecomposed of PAPS (%) ([1]; aqueous solution 10 mg/mL, standing still at 23° C. for seven days): 96%; stability in aqueous solution (in words) ([1]; aqueous solution, seven days): relatively stable; Undecomposed of PAPS (%) ([1]; powder (10 mg), standing still at 4° C. for seven days): 89%; Undecomposed of PAPS (%) ([1]; powder (10 mg), standing still at 23° C. for seven days): 65%; decomposed (%) ([1]; powder, ambient temperature, seven days): 35%; stability in the form of powder (in words) ([1]; powder, seven days): very unstable"
"Nc1ncnc2c1ncn2[C@@H]1O[C@H](COP(=O)(O)OS(=O)(=O)O)[C@@H](OP(=O)(O)O)[C@H]1O [Piperidine salt, 3′-phosphoadenosine 5′-phosphosulfate]",–,92,–
"Nc1ncnc2c1ncn2[C@@H]1O[C@H](COP(=O)(O)OS(=O)(=O)O)[C@@H](OP(=O)(O)O)[C@H]1O [Polyethyleneimine salt, 3′-phosphoadenosine 5′-phosphosulfate]",94,–,–
"Nc1ncnc2c1ncn2[C@@H]1O[C@H](COP(=O)(O)OS(=O)(=O)O)[C@@H](OP(=O)(O)O)[C@H]1O [Potassium salt, 3′-phosphoadenosine 5′-phosphosulfate]",22,–,–
"Nc1ncnc2c1ncn2[C@@H]1O[C@H](COP(=O)(O)OS(=O)(=O)O)[C@@H](OP(=O)(O)O)[C@H]1O [Putrescine salt, 3′-phosphoadenosine 5′-phosphosulfate]",80,–,–
"Nc1ncnc2c1ncn2[C@@H]1O[C@H](COP(=O)(O)OS(=O)(=O)O)[C@@H](OP(=O)(O)O)[C@H]1O [Sodium salt, 3′-phosphoadenosine 5′-phosphosulfate]",64,–,–
"Nc1ncnc2c1ncn2[C@@H]1O[C@H](COP(=O)(O)OS(=O)(=O)O)[C@@H](OP(=O)(O)O)[C@H]1O [Triethylamine salt, 3′-phosphoadenosine 5′-phosphosulfate]",100,–,–
"Nc1ncnc2c1ncn2[C@@H]1O[C@H](COP(=O)(O)OS(=O)(=O)O)[C@@H](OP(=O)(O)O)[C@H]1O [Trimethylamine salt, 3′-phosphoadenosine 5′-phosphosulfate]",–,89,–

# — patent US7863438B2 (Yamasa Corporation, priority 2005, dated 2011)
